Measurements published in patent publication US20240376091A1, “THIADIAZOLEAMIDE DERIVATIVES AND THEIR APPLICATIONS” (ZHEJIANG UNIVERSITY, priority 2021, published 2024).

Target: T1, AR (Homo sapiens, UniProt P10275, T878A)
T1 construct: into the androgen-dependent PCa cells (LNCaP); endogenous in cells; host or cells: LNCaP-ARR2PB-eGFP
T1 sequence (P10275 1-920 T878A): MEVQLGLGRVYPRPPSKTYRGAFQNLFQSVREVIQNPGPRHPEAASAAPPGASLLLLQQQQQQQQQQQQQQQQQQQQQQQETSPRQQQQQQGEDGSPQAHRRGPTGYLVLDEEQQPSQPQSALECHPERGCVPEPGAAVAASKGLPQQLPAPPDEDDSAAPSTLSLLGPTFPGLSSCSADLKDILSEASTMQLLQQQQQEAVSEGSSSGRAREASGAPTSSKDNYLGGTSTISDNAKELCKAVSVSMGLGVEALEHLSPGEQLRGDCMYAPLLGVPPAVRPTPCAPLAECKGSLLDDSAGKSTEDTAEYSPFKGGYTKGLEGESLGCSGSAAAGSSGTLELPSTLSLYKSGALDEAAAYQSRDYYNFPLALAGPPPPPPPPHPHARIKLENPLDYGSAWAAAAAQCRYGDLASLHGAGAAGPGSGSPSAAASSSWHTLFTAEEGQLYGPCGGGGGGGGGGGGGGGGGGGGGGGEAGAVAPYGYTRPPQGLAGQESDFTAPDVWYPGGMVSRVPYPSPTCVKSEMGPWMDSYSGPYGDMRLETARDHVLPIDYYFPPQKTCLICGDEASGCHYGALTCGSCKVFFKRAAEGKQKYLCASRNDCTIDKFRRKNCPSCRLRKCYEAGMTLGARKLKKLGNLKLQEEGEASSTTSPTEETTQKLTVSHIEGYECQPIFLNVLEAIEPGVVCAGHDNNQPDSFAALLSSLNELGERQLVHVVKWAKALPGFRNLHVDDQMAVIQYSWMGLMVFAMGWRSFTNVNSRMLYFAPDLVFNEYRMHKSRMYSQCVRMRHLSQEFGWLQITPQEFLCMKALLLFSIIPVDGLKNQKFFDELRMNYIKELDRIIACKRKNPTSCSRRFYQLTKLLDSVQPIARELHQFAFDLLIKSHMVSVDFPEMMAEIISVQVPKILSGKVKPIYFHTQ
Experiment: AR transcriptional activity, LNCaP-ARR2PB-eGFP reporter cells
Assay type: cell-based
Details: read-out: IC50 AR transcriptional activities
Source text: Detection principles: We conducted a stable transfection of promoter ARR2PB known for its strong AR responsiveness, into the androgen-dependent PCa cells (LNCaP). The expression of enhanced green fluorescent protein (eGFP) is depending on the degree of activation of AR. Therefore, LNCaP-ARR2PB-eGFP cell line could quantitatively determine the AR antagonistic activities of the compounds by evaluating the expression of eGFP.

Structure (SMILES) | IC50
Cc1oc(C(=O)Nc2nc(CC(C)(F)F)ns2)cc1-c1cccc(OC(F)(F)F)c1 [Compound F-17, N-(3-(2,2-difluoropropyl)-1,2,4-thiadiazol-5-yl)-5-methyl-4-(3-(trifluoromethoxy)phenyl)furan-2-carboxamide] | 25 µM
CC(Cc1nsc(NC(=O)c2csc(-c3cccc(C(F)(F)F)c3)c2)n1)N(C)C [Compound D-6, N-(3-(2-(dimethylamino)propyl)-1,2,4-thiadiazol-5-yl)-5-(3-(trifluoromethyl)phenyl)thiophene-3-carboxamide] | 43.8 µM
CC(=O)Cc1nsc(NC(=O)c2cc(-c3cccc(C#N)c3)oc2C(F)(F)F)n1 [Compound E-2, 5-(3-Cyanophenyl)-N-(3-(2-oxopropyl)-1,2,4-thiadiazol-5-yl)-2-(trifluoromethyl)furan-3-carboxamide] | 2.23 µM
COc1cccc(-c2cc(C(=O)Nc3nc(CC(C)=O)ns3)oc2C)c1 [Compound F-3, 4-(3-Methoxyphenyl)-5-methyl-N-(3-(2-oxopropyl)-1,2,4-thiadiazol-5-yl)furan-2-carboxamide] | 22.4 µM
CO/N=C(\C)Cc1nsc(NC(=O)c2cc(-c3cccc(C(F)(F)F)c3)oc2C)n1 [Compound A-70, N-(3-(2-(methoxyimino)propyl)-1,2,4-thiadiazol-5-yl)-2-methyl-5-(3-(trifluoromethyl)phenyl)furan-3-carboxamide] | 0.88 µM
Cc1sc(-c2cccc(C(F)(F)F)c2)cc1C(=O)Nc1nc(CC(C)N(C)C)ns1 (stereo not drawn) [Compound C-6, N-(3-(2-(dimethylamino)propyl)-1,2,4-thiadiazol-5-yl)-2-methyl-5-(3-(trifluoromethyl)phenyl)thiophene-3-carboxamide] | 33.2 µM
COc1cccc(-c2cc(C(=O)Nc3nc(CC(C)=O)ns3)c(C(F)(F)F)o2)c1 [Compound E-3, 5-(3-Methoxyphenyl)-N-(3-(2-oxopropyl)-1,2,4-thiadiazol-5-yl)-2-(trifluoromethyl)furan-3-carboxamide] | 0.57 µM
Cc1oc(C(=O)Nc2nc(CC(C)N3CCCCC3)ns2)cc1-c1cccc(C#N)c1 (stereo not drawn) [Compound F-7, 4-(3-Cyanophenyl)-5-methyl-N-(3-(2-(piperidin-1-yl)propyl)-1,2,4-thiadiazol-5-yl)furan-2-carboxamide] | 14 µM
CC(=O)Cc1nsc(NC(=O)c2cc(-c3ccc4ccccc4c3)oc2C)n1 [Compound A-12, 2-Methyl-5-(naphthalen-2-yl)-N-(3-(2-oxopropyl)-1,2,4-thiadiazol-5-yl)furan-3-carboxamide] | 3.17 µM
C/C(Cc1nsc(NC(=O)c2cc(-c3cccc(C(F)(F)F)c3)oc2C)n1)=N\O [Compound A-69, N-(3-(2-(hydroxyimino)propyl)-1,2,4-thiadiazol-5-yl)-2-methyl-5-(3-(trifluoromethyl)phenyl)furan-3-carboxamide] | 0.54 µM
CC(=O)Cc1nsc(NC(=O)c2cc(-c3cccc([N+](=O)[O-])c3)oc2C)n1 [Compound A-2, 2-Methyl-5-(3-nitrophenyl)-N-(3-(2-oxopropyl)-1,2,4-thiadiazol-5-yl)furan-3-carboxamide] | 0.04 µM
Cc1oc(-c2cccc(C(F)(F)F)c2)cc1C(=O)Nc1nc(CC(C)O)ns1 (stereo not drawn) [Compound A-60, N-(3-(2-hydroxypropyl)-1,2,4-thiadiazol-5-yl)-2-methyl-5-(3-(trifluoromethyl)phenyl)furan-3-carboxamide] | 0.39 µM
CC(=O)Cc1nsc(NC(=O)c2cc(-c3cccc(Br)c3)oc2C)n1 [Compound A-9, 5-(3-Bromophenyl)-2-methyl-N-(3-(2-oxopropyl)-1,2,4-thiadiazol-5-yl)furan-3-carboxamide] | 2.36 µM
Cc1oc(-c2cccc(C#N)c2)cc1C(=O)Nc1nc(CC(C)N2CCCC2)ns1 (stereo not drawn) [Compound A-46, 5-(3-Cyanophenyl)-2-methyl-N-(3-(2-(pyrrolidin-1-yl)propyl)-1,2,4-thiadiazol-5-yl)furan-3-carboxamide] | 0.41 µM
CC(F)(F)Cc1nsc(NC(=O)c2cc(-c3cccc(C(F)(F)F)c3)oc2C(F)(F)F)n1 [Compound E-27, N-(3-(2,2-difluoropropyl)-1,2,4-thiadiazol-5-yl)-2-(trifluoromethyl)-5-(3-(trifluoromethyl)phenyl) fura n-3-carboxamide] | 0.95 µM
COC(C)Cc1nsc(NC(=O)c2cc(-c3cccc(C(F)(F)F)c3)oc2C)n1 (stereo not drawn) [Compound A-61, N-(3-(2-methoxypropyl)-1,2,4-thiadiazol-5-yl)-2-methyl-5-(3-(trifluoromethyl)phenyl)furan-3-carboxamide] | 3.82 µM
CC(=O)Cc1nsc(NC(=O)c2cc(-c3cccc4ccccc34)oc2C)n1 [Compound A-11, 2-Methyl-5-(naphthalen-1-yl)-N-(3-(2-oxopropyl)-1,2,4-thiadiazol-5-yl)furan-3-carboxamide] | 4.24 µM

Other lines, results leading:

IC50 | Structure (SMILES)
47.2 µM | CC(Cc1nsc(NC(=O)c2cc(-c3cccc(OC(F)(F)F)c3)co2)n1)N1CCN(C)CC1 (stereo not drawn) [Compound G-9, N-(3-(2-(4-methylpiperazin-1-yl)propyl)-1,2,4-thiadiazol-5-yl)-4-(3-(trifluoromethoxy)phenyl)furan-2-carboxamide]
23.7 µM | CN1CCN(Cc2nsc(NC(=O)c3csc(-c4cccc(OC(F)F)c4)c3)n2)CC1 [Compound D-58, 5-(3-(Difluoromethoxy)phenyl)-N-(3-((4-methylpiperazin-1-yl)methyl)-1,2,4-thiadiazol-5-yl)thiophene-3-carboxamide]
27.3 µM | O=C(Nc1nc(CN2CCCC2)ns1)c1csc(-c2cccc(OC(F)(F)F)c2)c1 [Compound D-53, N-(3-(pyrrolidin-1-ylmethyl)-1,2,4-thiadiazol-5-yl)-5-(3-(trifluoromethoxy)phenyl)thiophene-3-carboxamide]
0.67 µM | Cc1oc(-c2cccc(OC(F)F)c2)cc1C(=O)Nc1nc(CN2CCOCC2)ns1 [Compound A-130, 5-(3-(Difluoromethoxy)phenyl)-2-methyl-N-(3-(morpholinomethyl)-1,2,4-thiadiazol-5-yl)furan-3-carboxamide]
19.2 µM | COc1cccc(-c2coc(C(=O)Nc3nc(CC(C)N4CCOCC4)ns3)c2)c1 (stereo not drawn) [Compound G-8, 4-(3-Methoxyphenyl)-N-(3-(2-morpholinopropyl)-1,2,4-thiadiazol-5-yl)furan-2-carboxamide]
18.1 µM | CC(O)Cc1nsc(NC(=O)c2csc(-c3cccc(C(F)(F)F)c3)c2)n1 [Compound D-20, N-(3-(2-hydroxypropyl)-1,2,4-thiadiazol-5-yl)-5-(3-(trifluoromethyl)phenyl)thiophene-3-carboxamide]
16.4 µM | Cc1oc(C(=O)Nc2nc(CN3CCN(C)CC3)ns2)cc1-c1cccc(OC(F)F)c1 [Compound F-28, 4-(3-(Difluoromethoxy)phenyl)-5-methyl-N-(3-((4-methylpiperazin-1-yl)methyl)-1,2,4-thiadiazol-5-yl)furan-2-carboxamide]
13 µM | CC(Cc1nsc(NC(=O)c2csc(-c3cccc(C#N)c3)c2)n1)N1CCCC1 [Compound D-12, 5-(3-Cyanophenyl)-N-(3-(2-(pyrrolidin-1-yl)propyl)-1,2,4-thiadiazol-5-yl)thiophene-3-carboxamide]
49.3 µM | CC(=O)Cc1nsc(NC(=O)c2cc(-c3cccc(OC(F)F)c3)sc2C)n1 [Compound C-5, 5-(3-(Difluoromethoxy)phenyl)-2-methyl-N-(3-(2-oxopropyl)-1,2,4-thiadiazol-5-yl)thiophene-3-carboxamide]
15 µM | O=C(Nc1nc(CN2CCOCC2)ns1)c1csc(-c2cccc(OC(F)F)c2)c1 [Compound D-57, 5-(3-(Difluoromethoxy)phenyl)-N-(3-(morpholinomethyl)-1,2,4-thiadiazol-5-yl)thiophene-3-carboxamide]
2.19 µM | COc1cccc(-c2cc(C(=O)Nc3nc(CN4CCOCC4)ns3)c(C(F)(F)F)o2)c1 [Compound E-39, 5-(3-Methoxyphenyl)-N-(3-(morpholinomethyl)-1,2,4-thiadiazol-5-yl)-2-(trifluoromethyl)furan-3-carboxamide]
12.9 µM | Cc1sc(-c2cccc(OC(F)F)c2)cc1C(=O)Nc1nc(CN2CCCCC2)ns1 [Compound C-56, 5-(3-(Difluoromethoxy)phenyl)-2-methyl-N-(3-(piperidin-1-ylmethyl)-1,2,4-thiadiazol-5-yl)thiophene-3-carboxamide]
19.6 µM | CC(=O)Cc1nsc(NC(=O)c2coc(-c3cccc(OC(F)F)c3)c2)n1 [Compound B-5, 5-(3-(Difluoromethoxy)phenyl)-N-(3-(2-oxopropyl)-1,2,4-thiadiazol-5-yl)furan-3-carboxamide]
